The values below come from ChEMBL document CHEMBL1139604 (Bioorg Med Chem Lett, 2005).

Bounds are passed on as bounds.

Experiment [1] in a line: Inhibition of bovine farnesyl transferase. Set-up: species or system Bos taurus.
Experiment [2] has as its target T1, Geranylgeranyl transferase type I (Bos taurus, UniProt P29702+Q5EAD5). Description: Inhibition of bovine geranylgeranyl transferase type I. It counts as protein-complex assay.
The target of experiment [3] is T2, Protein farnesyltransferase (Mus musculus) (UniProt Q61239+Q8K2I1). Description: Percent inhibition of Ras processing in H-ras transformed NIH3T3 cells at 100 nM. It counts as functional, cell-based.
Experiment [4] concerns the target T3, Protein farnesyltransferase (Mus musculus, UniProt Q61239+Q8K2I1). The experiment can be described thus: Inhibition of Ras processing in H-ras transformed NIH3T3 cells. It counts as functional, cell-based.
In experiment [5] the target is T1, Geranylgeranyl transferase type I. The experiment can be described thus: Inhibition of bovine geranylgeranyl transferase type I in presence of Lonafarnib. In kind it is protein-complex assay.
Experiment [6] can be described thus: Inhibition of bovine farnesyl transferase in presence of Lonafarnib. Set-up: species or system Bos taurus.
The target in experiment [7] is T3, Protein farnesyltransferase. Description: Inhibition of Ras processing in H-ras transformed NIH3T3 cells in presence of Lonafarnib. It counts as functional, cell-based.
Experiment [8] deals with T2, Protein farnesyltransferase (Mus musculus). The experiment can be described thus: Percent inhibition of Ras processing in H-ras transformed NIH3T3 cells at 1000 nM. It counts as functional, cell-based.

As a reminder, the IC50 is the concentration needed to halve the response being measured. For orientation: inhibition means the percentage by which the read-out fell short of the control. Low values mean a weak effect, high ones a strong effect. Take `Cn1cncc1C(O)(c1ccc(C#N)cc1)c1ccc2c(c1)n(Cc1cccc(Cl)c1)c(=O)n2C` (stereo not drawn): the IC50 in experiment [1] amounted to 5.2 nM; in experiment [2], 5600 nM. The same compound came in with an inhibition in experiment [3] of 51%.

Broadly, the EC50 is the concentration that produces a half-maximal response. With `Cn1cncc1C(O)(c1ccc(C#N)cc1)c1ccc2c(c1)n(-c1cccc(Cl)c1)c(=O)n2C` (stereo not drawn), the results for the IC50 in experiment [1] and in experiment [2] were 1.4 nM and 1800 nM, respectively. Further, the EC50 in experiment [4] stood at 18.1 nM.

`Cn1cncc1[C@@](N)(c1ccc(Cl)cc1)c1ccc2c(c1)c(-c1cccc(Cl)c1)cc(=O)n2C` [TIPIFARNIB]: the IC50 in experiment [5] is > 10000 nM; in experiment [6] it was 8.3 nM. Moreover, the EC50 in experiment [7] turned out to be 100 nM.

The compound `Cn1cncc1C(O)(c1ccc(Cl)cc1)c1ccc2c(c1)n(-c1cccc(Cl)c1)c(=O)n2C` (stereo not drawn) had an IC50 in experiment [1] of 16 nM. Further, the inhibition in experiment [3] is 26%.

Consider `Cn1cncc1C(O)(c1ccccc1)c1ccc2ccn(-c3cccc4ccccc34)c2c1` (stereo not drawn), for which the IC50 in experiment [1] is 200 nM.

Regarding `Cn1cncc1C(O)(c1ccc(I)cc1)c1ccc2c(c1)n(Cc1cccc(Cl)c1)c(=O)n2C` (stereo not drawn), the IC50 in experiment [1] came out at 71 nM.

`Cn1cncc1C(O)(c1ccc(Cl)cc1)c1ccc2c(c1)n(C)c(=O)n2-c1cccc(Cl)c1` (stereo not drawn): the IC50 in experiment [1] came out at 1100 nM.

Regarding `Cn1cncc1C(O)(c1ccc(Cl)cc1)c1ccc2c(c1)n(-c1ccc3c(c1)OCO3)c(=O)n2C` (stereo not drawn), half-maximal inhibition in experiment [1] (IC50) required 150 nM.

`Cn1cncc1C(O)(c1ccc(C#N)cc1)c1ccc2c(c1)n(-c1ccc3c(c1)OCO3)c(=O)n2C` (stereo not drawn): the IC50 is 8 nM in experiment [1] and > 10000 nM in experiment [2]. This compound also had an inhibition in experiment [3] of 0%.

`COc1cccc(-n2c(=O)n(C)c3ccc(C(O)(c4ccc(Cl)cc4)c4cncn4C)cc32)c1` (stereo not drawn): the results for the IC50 in experiment [1] and in experiment [2] were 6.7 nM and > 10000 nM, respectively. In addition, the inhibition in experiment [3] came to 24%.

In experiment [1], `Cn1cncc1C(O)(c1ccc(Cl)cc1)c1ccc2c(c1)n(Cc1cccc(Cl)c1)c(=O)n2C` (stereo not drawn) yielded an IC50 of 150 nM.

For `CCOc1cccc(-n2c(=O)n(C)c3ccc(C(O)(c4ccc(C#N)cc4)c4cncn4C)cc32)c1` (stereo not drawn), the IC50 is 0.5 nM in experiment [1] and > 10000 nM in experiment [2]. This compound also gave an inhibition in experiment [3] of 47%.

`COc1cccc(-n2c(=O)n(C)c3ccc(C(O)(c4ccc(C#N)cc4)c4cncn4C)cc32)c1` (stereo not drawn): the IC50 is 5.1 nM in experiment [1] and > 10000 nM in experiment [2].

For `CCOc1cccc(-n2c(=O)n(C)c3ccc(C(O)(c4ccc(Cl)cc4)c4cncn4C)cc32)c1` (stereo not drawn), the IC50 was 6.6 nM in experiment [1] and 7500 nM in experiment [2]. For the same compound, a half-maximal response in experiment [4] (EC50) required 22 nM.

In experiment [1], `Cn1cncc1C(O)(c1ccccc1)c1ccc2ccn(-c3cccc(Cl)c3)c2c1` (stereo not drawn) registered an IC50 of 36 nM. This compound also returned an inhibition in experiment [8] of 13%.

Regarding `Cn1cncc1C(O)(c1ccc(Cl)cc1)c1ccc2c(c1)n(-c1ccc3ccccc3c1)c(=O)n2C` (stereo not drawn), the IC50 in experiment [1] turned out to be 21 nM; in experiment [2], 2900 nM. This compound had an inhibition in experiment [3] of 0%.

Turning to `Cn1cncc1C(O)(c1ccc(I)cc1)c1ccc2c(c1)n(-c1cccc(Cl)c1)c(=O)n2C` (stereo not drawn), the IC50 was 24 nM in experiment [1] and 1200 nM in experiment [2]. In addition, the inhibition in experiment [3] came out at 2%.
